Reference: ChEMBL document CHEMBL4680271, “COVID-19: Drug Targets and Potential Treatments” (J Med Chem, 2020)
pEC50: −log10 of the molar value.

Key:
SARS-CoV-2 = experiment: Antiviral activity against nCoV-2019 BetaCoV/Wuhan/WIV04/2019 infected in African green monkey VeroE6 cells assessed as reduction in viral yield preincubated for 1 hr followed by viral infection and further replacement of fresh medium containing compound and measured at 48 hrs post infection by qRT-PCR method; assay type: functional, organism-based; conditions: Severe acute respiratory syndrome coronavirus 2, BetaCoV/Wuhan/WIV04/2019, Vero C1008
[1] = biological target: Procathepsin L (Homo sapiens) (UniProt P07711); experiment: Inhibition of Cathepsin L in HEK293 cells harboring human ACE2 assessed as reduction in SARS-CoV-2 S pseudovirions entry into host cell pretreated for 1 hr followed by viral infection and measured after overnight incubation by luciferase method; assay type: cell-based; conditions: concentration not given here
Sequence of Procathepsin L (Homo sapiens) (P07711 114-333 limits assumed): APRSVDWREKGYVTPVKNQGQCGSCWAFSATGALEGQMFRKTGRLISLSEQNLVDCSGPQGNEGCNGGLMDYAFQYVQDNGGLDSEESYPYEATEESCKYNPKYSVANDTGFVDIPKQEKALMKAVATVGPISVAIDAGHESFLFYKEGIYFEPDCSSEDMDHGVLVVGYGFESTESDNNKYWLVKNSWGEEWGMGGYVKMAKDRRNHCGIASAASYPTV

Nc1nc2c(ncn2CCC(CO)CO)c(=O)[nH]1 [PENCICLOVIR]
pEC50 (SARS-CoV-2): 4.02

CCc1ccccc1NC(=O)CSC(=O)NNC(=O)[C@H](Cc1c[nH]c2ccccc12)NC(=O)OC(C)(C)C
inhibition [1]: > 76%
